Data published in US20110104713A1, “PRODUCTS AND PROCESSES FOR MODULATING PEPTIDE-PEPTIDE BINDING DOMAIN INTERACTIONS” (priority 2002, published 2011).
Entries after “also recorded” stand apart in the source; their conditions may differ.

Tests used:
[1] = tested on: GST-PTIP tandem BRCT domains interaction with 53BP1; assay: GST-PTIP tandem BRCT pull-down of 53BP1 from irradiated U2OS cells; format: binding, human; settings: 25 mM caffeine prior to irradiation, U2OS
Description: (§1) U2OS cells were either treated with 10 Gy of ionizing radiation or mock irradiated and allowed to recover for 30-120 minutes. Cells were subsequently lysed in 50 mM Tris/HCl (pH7.6), 150 mM NaCl, 1.0% NP-40, 5 mM EDTA, 2 mM DTT, 8 μg/mL pepstatin, 8 μg/mL aprotinin, 8 μg/mL leupeptin, 2 mM Na3VO4, 10 mM NaF, 1 μM microcystin. The lysates (0.5-2 mg) were incubated with 20 μL glutathione beads containing 10-20 μg of GST-PTIP BRCT domains (residues 550-757), GST-BRCA1 BRCT domains (residues 1634-1863), or GST for 120 minutes at 4° C. Beads were washed three times with lysis buffer. Precipitated proteins were eluted in sample buffer and detected by blotting with anti-ATM/ATR substrate (pSer/pThr)Gln antibody (CELL SIGNALING TECHNOLOGY, Inc Beverly, Mass.), polyclonal anti-53BP1 (ONCOGENE […] PRODUCTS, San Diego, Calif. 92121), or monoclonal anti-HA (COVANCE Inc, Princeton, N.J.). For peptide competition experiments, GST-PTIP BRCT domains or GST-BRCA1 BRCT domains were immobilized on glutathionine beads and preincubated with 350 μM of BRCTtide-optimal, 7pT, 7T, pSQ-library, SQ-library, or pTP-library for 1 hour at 4° C. and washed three times with lysis buffer.

[2] = target: T1, GST-BRCA1 tandem BRCT domains interaction with phosphoproteins (Homo sapiens, UniProt P38398); assay: GST-BRCA1 tandem BRCT pull-down of DNA damage-induced phosphoproteins from irradiated U2OS cells; format: binding
T1 construct: 15 μM GST-BRCA1 BRCT domains (residues 1634-1863); made in house; host or cells: E. coli DH5a
Description: as §1

[3] = target: T2, GST-PTIP BRCT domains (residues 550-757) (Homo sapiens, UniProt Q6ZW49); assay: Isothermal titration calorimetry of peptides with PTIP tandem BRCT domains; format: binding; settings: PTIP; N.D.B = no detectable binding by ITC, tandem BRCT domain concentration of at least 150 μM
T2 construct: 15 μM GST-PTIP BRCT domains (residues 550-757); made in house; host or cells: E. coli DH5a
Source text: (§2) For deletion mapping of the PTIP and BRCA1 BRCT phospho-binding region and for expression of MDC 1, 53BP1 and Rad9 (FIG. 17-18), fragments were generated by PCR for in vitro transcription/translation and cloned into a pcDNA3.1 expression vector (Invitrogen, San Diego, Calif.). For production of recombinant GST-PTIP BRCT domains and GSTBRCA1 BRCT domains, residues 550-757 of PTIP and residues 1634-1863 of BRCA1 were ligated into the EcoRI and NotI sites of pGEX-4T1 (Pharmacia, Peapack, N.J.) and subsequently transformed into DH5a E. Coli. Protein induction occurred at 37° C. for 4 hours or at 25° C. for 16 hours in the presence of 0.4 mM IPTG. For peptide filter blot analysis and measurements of peptide binding affinity by ITC, GSTPTIP BRCT domains (residues 550-757) and GST-BRCA1 BRCT domains (residues 1634-1863) were isolated from bacterial lysates using glutathione agarose, eluted with 40 mM glutathione, and dialyzed into 50 mM Tris/HCl (pH 8.1), 300 mM NaCl. The GFP-PTIP constructs FL (residues 1-757), !BRCT (residues 1-550), or (BRCT)2 (residues 550-757) were cloned into the EcoRI and SalI sites of the pEGFP-C2 (BD Biosciences Clontech Franklin Lakes, N.J.) expression vector.
(§3) Peptides were synthesized by solid phase technique with three C-terminal lysines to enhance solubility. The peptides were then purified by reverse phase HPLC following deprotection and confirmed by MALDI-TOF mass spectrometry. Calorimetry measurements were performed using a VP-ITC microcalorimeter (MicroCal Inc., Studio City, Calif.). Experiments involved serial 10 μL injections of peptide solutions (20 μM-150 μM) into a sample cell containing 15 μM GST-PTIP BRCT domains (residues 550-757) or 15 μM GST-BRCA1 BRCT domains (residues 1634-1863) in 50 mM Tris/HCl (pH 8.1), 300 mM NaCl. Twenty injections were performed with 240 second intervals between injections and a reference power of 25 μCal/s. Binding isotherms were plotted and analyzed using ORIGIN Software (MicroCal Inc. Studio City, Calif.).

[4] = target: T3, GST-BRCA1 BRCT domains (residues 1634-1863) (Homo sapiens, UniProt P38398); assay: Isothermal titration calorimetry of peptides with BRCA1 tandem BRCT domains; format: binding; settings: BRCA1; N.D.B = no detectable binding by ITC, tandem BRCT domain concentration of at least 150 μM
T3 construct: 15 μM GST-BRCA1 BRCT domains (residues 1634-1863); made in house; host or cells: E. coli DH5a
Source text: as §2, §3

[5] = target: T4, GST-PTIP tandem BRCT domains interaction with 53BP1 (Homo sapiens, UniProt Q6ZW49); assay: GST-PTIP tandem BRCT pull-down of 53BP1 from irradiated U2OS cells; format: binding; settings: 350 μM peptide or library, 1 hour at 4° C., IR treated U2OS
T4 construct: 10-20 μg of GST-PTIP BRCT domains (residues 550-757); made in house; host or cells: E. coli DH5a (GST-PTIP BRCT); 53BP1 endogenous from U2OS lysate
Description: as §1

T4 sequence (Q6ZW49 862-1069): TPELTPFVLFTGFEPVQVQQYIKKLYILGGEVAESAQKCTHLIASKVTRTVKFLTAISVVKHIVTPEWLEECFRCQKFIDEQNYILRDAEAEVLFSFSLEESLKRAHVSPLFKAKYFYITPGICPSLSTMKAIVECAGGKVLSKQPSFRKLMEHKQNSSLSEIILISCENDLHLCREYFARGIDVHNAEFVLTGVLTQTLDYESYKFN
T1 sequence (P38398 1634-1863): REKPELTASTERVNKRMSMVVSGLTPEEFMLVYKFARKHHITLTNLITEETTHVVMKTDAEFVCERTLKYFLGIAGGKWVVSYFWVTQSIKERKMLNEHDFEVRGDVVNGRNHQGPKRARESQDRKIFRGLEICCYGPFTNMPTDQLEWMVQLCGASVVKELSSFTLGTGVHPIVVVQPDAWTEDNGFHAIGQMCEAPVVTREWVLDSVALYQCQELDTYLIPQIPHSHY
T2 sequence (Q6ZW49 862-1069): as the sequence (Q6ZW49 862-1069) above
T3 sequence (P38398 1634-1863): as the sequence (P38398 1634-1863) above

| Compound | effect of caffeine treatment of cells on PTIP BRCT interaction with 53BP1 [1] | effect of caffeine pre-treatment of cells on BRCA1 BRCT binding to (pSer or pThr)-Gln-containing proteins ([2]; caffeine prior to γ-irradiation, U2OS) | Kd (N.D.B.) [3] | Kd (N.D.B.) [4] | effect of bead pre-incubation with peptide/library on PTIP BRCT interaction with 53BP1 [5] | effect of bead pre-incubation with peptide/library on PTIP BRCT interaction with 53BP1 ([5]; listed as non-phosphorylated counterpart) | effect of pre-incubation with peptide/library on BRCA1 BRCT binding to (pSer or pThr)-Gln-containing proteins ([2]; 350 μM peptide or library, U2OS lysates after 10 Gy) |
| --- | --- | --- | --- | --- | --- | --- | --- |
| Cn1c(=O)c2c(ncn2C)n(C)c1=O [caffeine, reference compound] | disrupted the interaction; also recorded: eliminated | largely eliminated |  |  |  |  |  |
| GAAYDITQVFPFAKKK [BRCTtide-7T] |  |  | N.D.B. | N.D.B. | not | not eliminated | not |
